From patent US6638938B1, “Method for preventing tissue injury from hypoxia” (Cell Therapeutics, Inc., priority 1993, dated 2003)

Tests used:
[1] = tested on: lungs of mice subjected to hemorrhage and resuscitation; experiment: lung histology in murine hemorrhage and resuscitation model; format: in vivo, Balb/C mice
Experimental: This example illustrates a study of Lisofylline in a murine hemorrhage and resuscitation model. Male Balb/C mice, 8-12 weeks of age, were obtained from Harlan-Sprague Dawley (Indianapolis, Ind.). The animals were kept on a 12 hour light/dark cycle with free access to food and water. With this model, 30% of the calculated blood volume (approximately 0.55 ml for a 20 gram mouse) was withdrawn from a methoxyflurane anesthetized mouse by cardiac puncture over a 60-second period. The blood was collected into a heparinized syringe (5 units heparin), kept at 37° C. for one hour, then reinfused into the mouse through a retroorbital plexus injection. Using this method, one is able to resuscitate all hemorrhaged mice without complication. The total period of methoxyflurane anesthesia is less than 2 minutes in all cases. The mortality rate with this hemorrhage protocol is approximately 12%, with all deaths occurring over the 24 hours post hemorrhage, and most deaths occurring within the one hour post hemorrhage.
Mice were treated with 100 mg/kg Lisofylline in 0.2 ml PBS and given initially i.v., by retroorbital injection, then i.p. every 8 hours for a total of 9 doses. In hemorrhaged mice, the Lisofylline in PBS was added to the shed blood, and then given retroorbitally with the blood during the resuscitation phase. In hemorrhaged Balb/C mice (n=3), sacrificed by exsanguination 5 minutes after receiving Lisofylline with the blood used for resuscitation, serum levels of Lisofylline were 44±6 μg/ml.
At 3 days following hemorrhage and resuscitation or the initiation of Lisofylline treatment, mice were sacrificed and the pulmonary circulation flushed with chilled PBS injected into the right ventricle, as described above. The left lower lobe of the lungs was placed into formalin. Hematoxylin and eosin sections of the lungs were prepared, and examined in a blinded fashion by a pulmonary pathologist who was unaware of the group to which the individual animal belonged. Lungs from normal, unmanipulated Balb/C mice also were included as additional controls. The histopathologic findings were scored on a 0 to 3 scale (with 0 being normal and 3 being the most severe change) for the following variables: a) neutrophil infiltration into the pulmonary interstitium; b) intraaveolar hemorrhage; and c) interstitial edema.
Groups of 6 to 8 mice were used for each condition. For each experimental condition, the whole group of animals was prepared and then studied at the same time. Cells, mRNA, BAL supernatants, and plasma were obtained individually from eachanimal, and then were analyzed individually before calculating group data. Data are presented as mean±standard error of the mean (SEM) for each experimental group. One-way analysis of variance and the Student Newman Keuls test were used for comparisons between normal, nominal treated, hemorrhage/treated and hemorrhage data groups. A P value of less than 0.05 was considered significant.

human neutrophils = experiment: neutrophil chemotaxis in Boyden chambers to zymosan activated serum; format: cell-based
Excerpt: Human recombinant interleukin-1α (IL-1) was obtained from Hoffmann-LaRoche, Inc. (Nutley, N.J.), frozen inaliquots and thawed daily for use. Ketamine hydrochloride was obtained from Parke-Davis (Morris Plains, N.J.), xylazine from Haver (New York, N.J.), ^125I labeled bovine serum albumin (BSA) from ICN Radiochemicals (Irvine, Calif.), and heparin sodium from Elkins-Sinn, Inc. (Cherry Hill, N.J.). All other reagents were purchased from Sigma Chemical Co. (St. Louis, Mo.). Neutrophils were purified from human blood by well described methods. Venous blood was anticoagulated with heparin and the cellular elements were separated from platelet-rich plasma by centrifugation. Cell pellets were resuspended in platelet-poor plasma and diluted 1:4 with 6% dextran (Pharmacia Fine Chemicals, Piscataway, N.J.) in saline. Red cells were separated from leukocytes by sedimentation. Leukocyte-rich supernatants were then aspirated, underlain with Ficoll-Hypaque (Pharmacia Fine Chemicals), and centrifuged at 275×g to separate neutrophils and monocytes. […]
Each sample was run in triplicate. Unstimulated locomotion was measured using control neutrophils in Hank's Balanced Salt Solution (HBSS) in the top chamber and HBSS in the bottom chamber. Stimulated locomotion was measured using twice-washed neutrophils in HBSS in the top chamber with and without Lisofylline and zymosan-activated serum (ZAS) in the bottom chamber. […] Indices of unstimulated or stimulated locomotion were expressed as the number of neutrophils migrating through the filter in 5 random, high-power objective fields (HPF).
Neutrophil chemotactic activity was determined by Boyden chamber assay and quantitated as the number of migrating PMN/5HPF using zymosan-activated serum (ZAS) as the chemoattractant (Repine et al., J. Reticuloendo. Soc. 24:217, 1978). Neutrophil adherence was assessed by quantitating the percentage of neutrophils adhering to nylon fibers following addition of phorbol myristate acetate (PMA 10-^6M, Sigma) (Rasp et al., J. Reticuloendo. Soc. 25:101, 1979). […]

[2] = tested on: neutrophils in lung lavages; experiment: lung lavage neutrophils of intact rats given IL-1 intratracheally; format: in vivo, Sprague-Dawley rats
Experimental: Interleukin-1α (IL-1) and Lisofylline administration in Male Sprague-Dawley rats weighing 300-350 g (Sasco, Omaha, Neb.) were fed a normal diet and acclimated to altitude (Denver, Colo.) for at least 14 days before study. Rats were anesthetized with ketamine (90 mg/kg) and zylazine (7 mg/kg) intraperitoneally and then supplemented as needed with ketamine and zylazine and kept on a warming blanket. The trachea was cannulated with an indwelling 15 gauge stub adaptor tube. After 5 ventilated breaths (Harvard Apparatus Co., Millis, Mass.), IL-1 (0.5 ml, 50 ng) in sterile, endotoxin-free saline, was rapidly instilled intratracheally with a syringe, followed by another 5 ventilated breaths. Sham treated rats received identical anesthesia and surgery but were injected only with sterile saline intratracheally. […]
Saline (3.0 ml×2) was slowly injected intratracheally and then withdrawn. Recovered lavage fluid was quantitated and centrifuged for 5 min and the cell pellet resuspended in 1.0 ml of lavage. Total cells were counted in a hemocytometer and a cytospin preparation (Shandon Southern Products Ltd, Cheshire, England) Wright-stained and examined to determine the percentages of neutrophils.

[3] = hemorrhaged/resuscitated mice, 100 mg/kg every 8 hours, 9 doses, 3 days, not significantly different from normal

With `C[C@@H](O)CCCCn1c(=O)c2c(ncn2C)n(C)c1=O` [Lisofylline, 1-R-(5-hydroxyhexyl)-3,7-dimethylxanthine] as the compound, how does the “number of neutrophils in the pulmonary interstitium” value ([1]; hemorrhaged mice treated, versus hemorrhaged/resuscitated untreated, 3 days) read?
The value was “significantly decreased”.

And the “degree of interstitial edema” value [1, 3]?
The value was “minimal”.

And the “degree of intraaveolar hemorrhage” value [1, 3]?
Its value is “minimal”.

What about the “number of neutrophils in the lungs” value ([1]; normal mice treated, versus normal untreated) of the same compound?
The value was “significantly increased”.

And the lung injury ([1]; rodent model of hemorrhage and reperfusion)?
Its lung injury is “completely prevented”.

And the “Neutrophil Chemotaxis in Boyden Chambers in vitro” value (human neutrophils; Neutrophils + ZAS + Lisofylline 1 μM)?
The value was 15.0 (2)δ PMN/5HPF.

And the “Neutrophil Chemotaxis in Boyden Chambers in vitro” value (human neutrophils; Neutrophils + ZAS + Lisofylline 50 μM)?
Its value is 11.1 (2)δ PMN/5HPF.

What about the “stimulated human neutrophil chemotaxis” value (human neutrophils; ZAS as chemoattractant, in vitro) of the same compound?
The value was “reduced”.

What about the “Total Lavage PMNs” value ([2]; IL-1 + Lisofylline (100 μg/kg)) of the same compound?
Its value is 3.64 ± 0.84 (9)δ number × 10^6.

And the “Total Lavage PMNs” value ([2]; Sham + Lisofylline (100 μg/kg))?
Its value is 0.42 ± 0.14 (8)δ number × 10^6.
